In PubChem BioAssay AID330 (DTP/NCI, 2004):
Several values for one entry are separate records, joined by “and”; a condition that tells them apart may be missing. Equal entries are not always repeated. Toxic doses and inconclusive results are not listed.

Test system: P388 leukemia ip, CD2F1 mice, survival T/C
Experiment: NCI In Vivo Anticancer Drug Screen. Data for tumor model P388 Leukemia (intraperitoneal) in CD2F1 (CDF1) mice
Settings: endpoint: median survival time, higher = longer survival
Procedure, shortened: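 Mice carrying the transplanted tumor received test compound or vehicle. Survival was recorded in each group, and the value is the treated-group measurement divided by that of the vehicle-treated control group.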

[1] = dose: 25.0 mg/kg/injection, schedule: Q01DX005 (ip), vehicle: saline with Tween-80
[2] = dose: 50.0 mg/kg/injection, schedule: Q01DX009 (ip), vehicle: Klucel (hydroxypropylcellulose) (HPC)
[3] = dose: 100.0 mg/kg/injection, schedule: Q01DX009 (ip), vehicle: Klucel (hydroxypropylcellulose) (HPC)
[4] = dose: 200.0 mg/kg/injection, schedule: Q01DX009 (ip), vehicle: Klucel (hydroxypropylcellulose) (HPC)
[5] = dose: 50.0 mg/kg/injection, schedule: Q01DX009 (ip), vehicle: saline with Tween-80
[6] = dose: 100.0 mg/kg/injection, schedule: Q01DX009 (ip), vehicle: saline with Tween-80
[7] = dose: 50.0 mg/kg/injection, schedule: Q01DX005 (ip), vehicle: saline with Tween-80
[8] = dose: 50.0 mg/kg/injection, schedule: Q01DX009 (ip), vehicle: saline
[9] = dose: 100.0 mg/kg/injection, schedule: Q01DX005 (ip), vehicle: saline with Tween-80
[10] = dose: 100.0 mg/kg/injection, schedule: Q04DX002 (ip), vehicle: saline with Tween-80
[11] = dose: 200.0 mg/kg/injection, schedule: Q04DX002 (ip), vehicle: saline with Tween-80
[12] = dose: 50.0 mg/kg/injection, schedule: Q04DX002 (ip), vehicle: saline with Tween-80
[13] = dose: 6.25 mg/kg/injection, schedule: Q01DX009 (ip), vehicle: saline with Tween-80
[14] = dose: 12.5 mg/kg/injection, schedule: Q01DX009 (ip), vehicle: saline with Tween-80
[15] = dose: 60.0 mg/kg/injection, schedule: Q01DX005 (ip), vehicle: Klucel (hydroxypropylcellulose) (HPC)
[16] = dose: 120.0 mg/kg/injection, schedule: Q01DX005 (ip), vehicle: Klucel (hydroxypropylcellulose) (HPC)
[17] = dose: 240.0 mg/kg/injection, schedule: Q01DX005 (ip), vehicle: Klucel (hydroxypropylcellulose) (HPC)

Compound: CCCC1c2c(ccc3c2OCO3)CC[N+]1(C)CCN(CC)CC (stereo unspecified)
- T/C (dose: 6.25 mg/kg/injection, schedule: Q01DX005 (ip), vehicle: saline with Tween-80): 109 % of control
- T/C (dose: 12.5 mg/kg/injection, schedule: Q01DX005 (ip), vehicle: saline with Tween-80): 98 % of control
- T/C [1]: 100 % of control and 105 % of control

Compound: c1ccc(-c2cn3ccccc3n2)cc1
- T/C [2]: 98 % of control
- T/C [3]: 108 % of control
- T/C [4]: 117 % of control

Compound: CCOC(=O)/C(C#N)=C/Nc1ccncc1
- T/C [5]: 95 % of control
- T/C [6]: 87 % of control

Compound: CC1CCCC(C)N1Cc1ccccc1 (stereo unspecified)
- T/C [1]: 93 % of control
- T/C [7]: 93 % of control

Compound: [CH3][Ge]([CH3])([Cl])[c]1cc[c]([Ge]([CH3])([CH3])[Cl])cc1
- T/C (dose: 3.12 mg/kg/injection, schedule: Q01DX009 (ip), vehicle: saline): 96 % of control
- T/C (dose: 6.25 mg/kg/injection, schedule: Q01DX009 (ip), vehicle: saline): 94 % of control
- T/C (dose: 12.5 mg/kg/injection, schedule: Q01DX009 (ip), vehicle: saline): 113 % of control and 92 % of control
- T/C [8]: 110 % of control
- T/C (dose: 50.0 mg/kg/injection, schedule: Q04DX003 (ip), vehicle: saline): 118 % of control
- T/C (dose: 100.0 mg/kg/injection, schedule: Q04DX003 (ip), vehicle: saline): 89 % of control

Compound: O=C1NC(=O)C2C3OC(C12)C1C2C(=O)NC(=O)C2C31 (stereo unspecified)
- T/C [7]: 105 % of control
- T/C [9]: 104 % of control

Compound: COc1ccc(COC(=O)Sc2nc(C)cc(C)n2)cc1
- T/C (dose: 50.0 mg/kg/injection, schedule: Q01DX005 (ip), vehicle: Klucel (hydroxypropylcellulose) (HPC)): 101 % of control
- T/C (dose: 100.0 mg/kg/injection, schedule: Q01DX005 (ip), vehicle: Klucel (hydroxypropylcellulose) (HPC)): 100 % of control
- T/C (dose: 200.0 mg/kg/injection, schedule: Q01DX005 (ip), vehicle: Klucel (hydroxypropylcellulose) (HPC)): 102 % of control

Compound: O=S(=O)(c1ccc(Br)cc1)S(=O)(=O)c1ccc(Br)cc1
- T/C [8]: 87 % of control
- T/C (dose: 100.0 mg/kg/injection, schedule: Q01DX009 (ip), vehicle: saline): 92 % of control
- T/C (dose: 200.0 mg/kg/injection, schedule: Q01DX009 (ip), vehicle: saline): 95 % of control

Compound: COc1ccc(/C=N/Nc2nnc3c(n2)[nH]c2ccc(Br)cc23)cc1
- T/C [10]: 100 % of control
- T/C [11]: 109 % of control
- T/C (dose: 400.0 mg/kg/injection, schedule: Q04DX002 (ip), vehicle: saline with Tween-80): 110 % of control

Compound: CSCc1ccc(C(N)C(=O)O)cc1 (stereo unspecified)
- T/C [12]: 99 % of control
- T/C [10]: 96 % of control
- T/C [11]: 99 % of control

Compound: COc1cc(OC)c2c(=O)cc(-c3ccccc3)sc2c1
- T/C (dose: 100.0 mg/kg/injection, schedule: Q01DX001 (ip), vehicle: saline with Tween-80): 100 % of control
- T/C (dose: 200.0 mg/kg/injection, schedule: Q01DX001 (ip), vehicle: saline with Tween-80): 94 % of control
- T/C (dose: 400.0 mg/kg/injection, schedule: Q01DX001 (ip), vehicle: saline with Tween-80): 95 % of control

Compound: CCON1CCC(OC(=O)CC)(c2ccccc2)C(C)C1 (stereo unspecified)
- T/C (dose: 100.0 mg/kg/injection, schedule: Q01DX001 (ip), vehicle: saline): 111 % of control
- T/C (dose: 200.0 mg/kg/injection, schedule: Q01DX001 (ip), vehicle: saline): 98 % of control

Compound: COc1cc(N=Nc2ccc(N)nc2N)c(OC)cc1N=Nc1ccc([N+](=O)[O-])cc1
- T/C [7]: 115 % of control
- T/C [9]: 107 % of control
- T/C (dose: 200.0 mg/kg/injection, schedule: Q01DX005 (ip), vehicle: saline with Tween-80): 107 % of control

Compound: C1CCC2[N-]CC3CCCCC3[N-]CC3CCCCC3[N-]CC3CCCCC3[N-]CC2C1.[Cu+2].[O-][Cl+3]([O-])([O-])O (stereo unspecified)
- T/C (dose: 0.78 mg/kg/injection, schedule: Q01DX009 (ip), vehicle: Klucel (hydroxypropylcellulose) (HPC)): 117 % of control
- T/C [13]: 152 % of control
- T/C (dose: 8.0 mg/kg/injection, schedule: Q01DX009 (ip), vehicle: saline with Tween-80): 154 % of control
- T/C (dose: 12.5 mg/kg/injection, schedule: Q01DX009 (ip), vehicle: Klucel (hydroxypropylcellulose) (HPC)): 87 % of control
- T/C [14]: 158 % of control
- T/C (dose: 25.0 mg/kg/injection, schedule: Q01DX009 (ip), vehicle: Klucel (hydroxypropylcellulose) (HPC)): 87 % of control

Compound: CC(=O)[O][Sn]([c]1ccccc1)([c]1ccccc1)[c]1ccccc1
- T/C (dose: 0.25 mg/kg/injection, schedule: Q04DX003 (ip), vehicle: saline with Tween-80): 104 % of control
- T/C (dose: 0.5 mg/kg/injection, schedule: Q04DX003 (ip), vehicle: saline with Tween-80): 109 % of control
- T/C (dose: 125.0 micrograms/kg/injection, schedule: Q01DX009 (ip), vehicle: saline with Tween-80): 100 % of control
- T/C (dose: 250.0 micrograms/kg/injection, schedule: Q01DX009 (ip), vehicle: saline with Tween-80): 109 % of control
- T/C (dose: 500.0 micrograms/kg/injection, schedule: Q01DX009 (ip), vehicle: saline with Tween-80): 109 % of control

Compound: OCCNCCN1CCN(CCCN2c3ccccc3Sc3ccc(C(F)(F)F)cc32)CC1
- T/C (dose: 3.12 mg/kg/injection, schedule: Q04DX003 (ip), vehicle: saline): 99 % of control
- T/C (dose: 6.25 mg/kg/injection, schedule: Q04DX003 (ip), vehicle: saline): 99 % of control and 101 % of control and 88 % of control
- T/C (dose: 12.5 mg/kg/injection, schedule: Q04DX003 (ip), vehicle: saline): 101 % of control and 102 % of control and 90 % of control
- T/C (dose: 25.0 mg/kg/injection, schedule: Q04DX003 (ip), vehicle: saline): 104 % of control and 106 % of control and 93 % of control

Compound: O=C(NC1=NN(c2ccccc2)C(=O)C1)c1ccccc1
- T/C (dose: 9.37 mg/kg/injection, schedule: Q01DX009 (ip), vehicle: saline): 101 % of control
- T/C (dose: 18.75 mg/kg/injection, schedule: Q01DX009 (ip), vehicle: saline): 110 % of control
- T/C (dose: 37.5 mg/kg/injection, schedule: Q01DX009 (ip), vehicle: saline): 98 % of control

Compound: O=C(Oc1ccccc1)C(Cc1ccccc1)NC(=O)C(F)(F)F (stereo unspecified)
- T/C [5]: 108 % of control
- T/C [6]: 99 % of control
- T/C (dose: 200.0 mg/kg/injection, schedule: Q01DX009 (ip), vehicle: saline with Tween-80): 103 % of control

Compound: Nc1nc(N)c2cc(CNc3ccc(Cl)c(Cl)c3)ccc2n1
- T/C [13]: 107 % of control
- T/C [14]: 110 % of control
- T/C (dose: 25.0 mg/kg/injection, schedule: Q01DX009 (ip), vehicle: saline with Tween-80): 109 % of control

Compound: Cc1ccc(NC(=S)SCc2ccc(Cl)cc2)cc1Br
- T/C [2]: 105 % of control and 123 % of control
- T/C (dose: 50.0 mg/kg/injection, schedule: Q01DX009 (ip), vehicle: suspension in saline): 109 % of control
- T/C [3]: 114 % of control
- T/C (dose: 100.0 mg/kg/injection, schedule: Q01DX009 (ip), vehicle: suspension in saline): 104 % of control
- T/C [4]: 121 % of control and 122 % of control
- T/C (dose: 200.0 mg/kg/injection, schedule: Q01DX009 (ip), vehicle: suspension in saline): 90 % of control

Compound: Cc1ccc2nc(Nc3nc(C)cc(C)n3)[nH]c2c1
- T/C [15]: 103 % of control
- T/C [16]: 100 % of control
- T/C [17]: 97 % of control

Compound: CN=C(N)N/N=C(/C)c1ccc2c(c1)Cc1cc(I)ccc1-2
- T/C (dose: 25.0 mg/kg/injection, schedule: Q04DX002 (ip), vehicle: saline with Tween-80): 106 % of control
- T/C [12]: 100 % of control
- T/C [10]: 107 % of control

Compound: Cc1c(-c2ccccc2)n[nH]c1-c1[nH]nc(-c2ccccc2)c1C
- T/C [15]: 93 % of control
- T/C [16]: 94 % of control
- T/C [17]: 93 % of control

Compound: COc1cc2c(c(OC)c1O)-c1ccc(OC)c(=O)cc1[C@@H](NC(C)=O)CC2
- T/C (dose: 10.0 mg/kg/injection, schedule: Q01DX009 (ip), vehicle: Klucel (hydroxypropylcellulose) (HPC)): 150 % of control and 175 % of control

Compound: Cc1c(C#N)c(=O)[nH]c2ccc([N+](=O)[O-])cc12
- T/C (dose: 60.0 mg/kg/injection, schedule: Q01DX005 (ip), vehicle: saline with Tween-80): 94 % of control
- T/C (dose: 120.0 mg/kg/injection, schedule: Q01DX005 (ip), vehicle: saline with Tween-80): 93 % of control
- T/C (dose: 240.0 mg/kg/injection, schedule: Q01DX005 (ip), vehicle: saline with Tween-80): 100 % of control
